Here are results for nine compounds from ChEMBL document CHEMBL1140760, “Molecular docking identifies the binding of 3-chloropyridine moieties specifically to the S1 pocket of SARS-CoV Mpro” (Bioorg Med Chem, 2008).

This assay can be described thus: Inhibition of SARS-CoV Mpro. Also on record: species or system Severe acute respiratory syndrome-related coronavirus.

Compound `O=C(Oc1cncc(Cl)c1)c1ccc(-c2ccc(Cl)cc2)o1` gave an IC50 of 63 nM. The value for `O=C(Oc1cncc(Cl)c1)c1ccccc1[N+](=O)[O-]` was 333 nM; that for `O=C(Oc1cncc(Cl)c1)c1cccc([N+](=O)[O-])c1` was 684 nM. In turn, `O=C(Oc1cncc(Cl)c1)c1ccc(-c2ccc(Cl)cc2[N+](=O)[O-])o1` registered an IC50 of 122 nM. The value for `O=C(Oc1cncc(Cl)c1)c1ccc(-c2cccc([N+](=O)[O-])c2)o1` was 500 nM; that for `O=C(Oc1cncc(Cl)c1)c1cc2ccccc2oc1=O` was 108 nM; that for `O=C(Oc1cncc(Cl)c1)c1ccc(-c2ccc([N+](=O)[O-])cc2)o1` was 60 nM. Take `O=C(Oc1cncc(Cl)c1)c1ccc(-c2ccccc2[N+](=O)[O-])o1`: half-maximal inhibition (IC50) was put at 208 nM. With `O=C(Oc1cncc(Cl)c1)c1cccc2ccccc12`, half-maximal inhibition (IC50) was put at 124 nM.

For orientation: IC50 means the concentration that inhibits the measured activity by half. Read a low IC50 as greater potency.
